Square brackets hold non-standard residues; d marks the D form. Peptide text beside a SMILES is read from it. hArg = N=C(N)NCCCC[C@H](N)C(=O)O; Nle = CCCC[C@H](N)C(=O)O; Orn = NCCC[C@H](N)C(=O)O
What was measured:
[1] = rats; administered into the ventricles; cited from earlier work
[2] = system: gastric acid production; conditions: cited from earlier work
[3] = system: cultured rat pituitary cells; assay: secretion of ACTH and β-endorphin by cultured rat pituitary cells; assay type: cell-based
Protocol: (§1) The synthetic peptide AHC and oCRF were examined for their effects on the secretion of ACTH and β-endorphin in vitro and was also in vivo. The potency of synthetic oCRF to stimulate the secretion of ACTH and β-endorphin by cultured rat pituitary cells was measured using the procedure as generally set forth in Endocrinology, 91, 562 (1972). […] In vivo testing is carried out using the general procedure set forth in C. Rivier et al., Science, 218, 377 (1982).

[4] = in mammals; cited from earlier work
[5] = lowering of blood pressure, in vivo testing
Protocol: as §1

[6] = system: secretion of ACTH and β-endorphin; assay: stimulation of ACTH and β-endorphin, background statements (in vitro and in vivo); conditions: synthetic peptide
[7] = system: secretion of ACTH and β-endorphin; conditions: in mammals; cited from earlier work
[8] = synthetic peptide, extended time period
[9] = general procedure of Example III

Compound: CRF: corticotropin releasing factor, the hentetracontapeptide; species not stated at the place (H-SEEPPISLDLTFHLLREVLEMARAEQLAQQAHSNRKLMEII-NH2; ends and bridges not checked; UniProt P06850 154-194, looked up)
- activity [1]: increases activity
- learning performance [1]: improves learning performance

Compound: CC[C@H](C)[C@H](NC(=O)[C@H](CC(=O)O)NC(=O)[C@H](CC(C)C)NC(=O)[C@H](CC(C)C)NC(=O)[C@H](CCCCN)NC(=O)[C@H](CCCNC(=N)N)NC(=O)[C@H](CC(N)=O)NC(=O)[C@H](CO)NC(=O)[C@H](Cc1c[nH]cn1)NC(=O)[C@H](C)NC(=O)[C@H](CCC(N)=O)NC(=O)[C@H](CCC(N)=O)NC(=O)[C@H](C)NC(=O)[C@H](CC(C)C)NC(=O)[C@H](CCC(N)=O)NC(=O)[C@H](CC(=O)O)NC(=O)[C@H](C)NC(=O)[C@H](CCCCN)NC(=O)[C@@H](NC(=O)[C@H](CCSC)NC(=O)[C@H](CCC(=O)O)NC(=O)[C@H](CC(C)C)NC(=O)[C@@H](NC(=O)[C@H](CCC(=O)O)NC(=O)[C@H](CCCNC(=N)N)NC(=O)[C@H](CC(C)C)NC(=O)[C@H](CC(C)C)NC(=O)[C@H](Cc1c[nH]cn1)NC(=O)[C@H](Cc1ccccc1)NC(=O)[C@@H](NC(=O)[C@H](CC(C)C)NC(=O)[C@H](CC(=O)O)NC(=O)[C@H](CC(C)C)NC(=O)[C@H](CO)NC(=O)[C@@H](NC(=O)[C@@H]1CCCN1C(=O)[C@@H]1CCCN1C(=O)[C@H](CCC(=O)O)NC(=O)[C@H](CCC(N)=O)NC(=O)[C@@H](N)CO)[C@@H](C)CC)[C@@H](C)O)C(C)C)[C@@H](C)O)C(=O)N[C@@H](C)C(N)=O [oCRF]
- gastric acid production [2]: inhibits gastric acid production
- EC50 ([3]; cultured rat pituitary cells, read-out: concentration giving half-maximal responses, secretion of ACTH and β-endorphin): ~0.25 nM
- biological activity in lowering blood pressure (reported) [4]: biological activity in lowering blood pressure in mammals
- lowering of blood pressure [5, 8]: substantially lower blood pressure for an extended time period
- stimulation of ACTH and β-endorphin activities [6]: stimulate ACTH and β-endorphin activities in vitro and in vivo
- biological activity in stimulating the secretion of ACTH and β-endorphin (reported) [7]: stimulating the secretion of ACTH and β-endorphin

Compound: CC[C@H](C)[C@H](NC(=O)[C@@H](NC(=O)[C@H](CC(=O)O)NC(=O)[C@H](CC(C)C)NC(=O)[C@H](CC(C)C)NC(=O)[C@H](CC(C)C)NC(=O)[C@H](CCCNC(=N)N)NC(=O)[C@H](CC(N)=O)NC(=O)[C@H](CC(N)=O)NC(=O)[C@H](C)NC(=O)[C@H](C)NC(=O)[C@H](CCC(N)=O)NC(=O)[C@H](CCC(N)=O)NC(=O)[C@H](CCCCN)NC(=O)[C@H](CCC(=O)O)NC(=O)[C@H](CCCCN)NC(=O)[C@H](CCC(=O)O)NC(=O)[C@H](CCC(N)=O)NC(=O)[C@H](CCCCN)NC(=O)[C@H](CCC(=O)O)NC(=O)[C@@H](NC(=O)[C@H](CCC(=O)O)NC(=O)[C@@H](NC(=O)[C@H](CCSC)NC(=O)[C@H](CCCCN)NC(=O)[C@H](CCCNC(=N)N)NC(=O)[C@H](CC(C)C)NC(=O)[C@H](CC(C)C)NC(=O)[C@H](CCC(=O)O)NC(=O)[C@H](CC(C)C)NC(=O)[C@H](CO)NC(=O)[C@H](CC(C)C)NC(=O)[C@H](CC(=O)O)NC(=O)[C@@H](NC(=O)[C@H](CO)NC(=O)[C@@H](NC(=O)[C@@H]1CCCN1C(=O)[C@@H]1CCCN1C(=O)CNC(=O)[C@@H]1CCC(=O)N1)[C@@H](C)CC)[C@@H](C)CC)[C@@H](C)CC)[C@@H](C)CC)[C@@H](C)O)C(N)=O [Sauvagine]
- biological activity in lowering blood pressure (reported) [4]: biological activity in lowering blood pressure in mammals
- biological activity in stimulating the secretion of ACTH and β-endorphin (reported) [7]: stimulating the secretion of ACTH and β-endorphin

Compound: CC[C@H](C)[C@H](NC(=O)[C@@H](NC(=O)[C@H](CCC(=O)O)NC(=O)[C@H](CC(C)C)NC(=O)[C@H](CC(C)C)NC(=O)[C@H](CCCCN)NC(=O)[C@H](CCCNC(=N)N)NC(=O)[C@H](CC(N)=O)NC(=O)[C@H](CO)NC(=O)[C@H](Cc1c[nH]cn1)NC(=O)[C@H](C)NC(=O)[C@H](CCC(N)=O)NC(=O)[C@H](CCC(=O)O)NC(=O)[C@H](C)NC(=O)[C@H](CC(C)C)NC(=O)[C@H](CCC(N)=O)NC(=O)[C@H](CCC(=O)O)NC(=O)[C@H](CCCN)NC(=O)[C@H](C)NC(=O)[C@H](CCSC)NC(=O)[C@H](CCC(=O)O)NC(=O)[C@H](CC(C)C)NC(=O)[C@@H](NC(=O)[C@H](CCC(=O)O)NC(=O)[C@H](CCCNC(=N)N)NC(=O)[C@H](CC(C)C)NC(=O)[C@H](CC(C)C)NC(=O)[C@H](Cc1c[nH]cn1)NC(=O)[C@H](Cc1ccccc1)NC(=O)[C@@H](NC(=O)[C@H](CC(C)C)NC(=O)[C@H](CC(=O)O)NC(=O)[C@H](CC(C)C)NC(=O)[C@H](CO)NC(=O)[C@@H](NC(=O)[C@@H]1CCCN1C(=O)[C@@H]1CCCN1C(=O)[C@H](CCC(=O)O)NC(=O)[C@H](CCC(N)=O)NC(=O)[C@@H](N)CO)[C@@H](C)CC)[C@@H](C)O)C(C)C)[C@@H](C)CC)C(N)=O [[Gln^2, Orn^23, Glu^29, Leu^38]-rCRF] (H-SQEPPISLDLTFHLLREVLEMA[Orn]EQLAEQAHSNRKLLEII-NH2)
- stimulates the secretion of ACTH and β-END-LI [3, 9]: stimulates the secretion of ACTH and β-END-LI
- lowering of blood pressure [5, 9]: very significant lowering of blood pressure

Compound: CC[C@H](C)[C@H](NC(=O)[C@@H](NC(=O)[C@H](CCC(=O)O)NC(=O)[C@H](CCSC)NC(=O)[C@H](CC(C)C)NC(=O)[C@H](CCCCN)NC(=O)[C@H](CCCNC(=N)N)NC(=O)[C@H](CC(N)=O)NC(=O)[C@H](CO)NC(=O)[C@H](Cc1c[nH]cn1)NC(=O)[C@H](C)NC(=O)[C@H](CCC(N)=O)NC(=O)[C@H](CCC(N)=O)NC(=O)[C@H](C)NC(=O)[C@H](CC(C)C)NC(=O)[C@H](CCC(N)=O)NC(=O)[C@H](CCC(=O)O)NC(=O)[C@H](C)NC(=O)[C@H](CCCNC(=N)N)NC(=O)[C@H](C)NC(=O)[C@H](CCSC)NC(=O)[C@H](CCC(=O)O)NC(=O)[C@H](CC(C)C)NC(=O)[C@@H](NC(=O)[C@H](CCC(=O)O)NC(=O)[C@H](CCCNC(=N)N)NC(=O)[C@H](CC(C)C)NC(=O)[C@H](CC(C)C)NC(=O)[C@H](Cc1c[nH]cn1)NC(=O)[C@H](Cc1ccccc1)NC(=O)[C@@H](NC(=O)[C@H](CC(C)C)NC(=O)[C@H](CC(=O)O)NC(=O)[C@H](CC(C)C)NC(=O)[C@H](CO)NC(=O)[C@@H](NC(=O)[C@@H]1CCCN1C(=O)[C@@H]1CCCN1C(=O)[C@H](CCC(=O)O)NC(=O)[C@H](CCC(=O)O)NC(=O)[C@@H](N)CO)[C@@H](C)CC)[C@@H](C)O)C(C)C)[C@@H](C)CC)C(N)=O [rCRF, reference compound]
- lowering of blood pressure [5, 8]: substantially lower blood pressure for an extended time period
- stimulation of ACTH and β-endorphin activities [6]: stimulate ACTH and β-endorphin activities in vitro and in vivo

Compound: CCCC[C@H](NC(=O)[C@H](CCC(=O)O)NC(=O)[C@H](CC(C)C)NC(=O)[C@H](CCCC)NC(=O)[C@H](CCC(=O)O)NC(=O)[C@H](CCCNC(=N)N)NC(=O)[C@H](CC(C)C)NC(=O)[C@H](CC(C)C)NC(=O)[C@H](Cc1c[nH]cn1)NC(=O)[C@H](Cc1ccccc1)NC(=O)[C@@H](NC(=O)[C@H](CC(C)C)NC(=O)[C@H](CC(=O)O)NC(=O)[C@H](CC(C)C)NC(=O)[C@H](CO)NC(=O)[C@@H](NC(=O)[C@@H]1CCCN1C(=O)[C@H]1CCCN1C(=O)[C@H](N)Cc1ccc(O)cc1)[C@@H](C)CC)[C@@H](C)O)C(=O)N[C@@H](C)C(=O)N[C@@H](CCCCN)C(=O)N[C@@H](C)C(=O)N[C@@H](CCC(=O)O)C(=O)N[C@@H](CCC(N)=O)C(=O)N[C@@H](CCC(=O)O)C(=O)N[C@@H](C)C(=O)N[C@@H](CCC(=O)O)C(=O)N[C@@H](CCC(N)=O)C(=O)N[C@@H](C)C(=O)N[C@@H](C)C(=O)N[C@@H](CC(C)C)C(=O)N[C@@H](CC(N)=O)C(=O)N[C@@H](CCCNC(=N)N)C(=O)N[C@@H](CC(C)C)C(=O)N[C@@H](CC(C)C)C(=O)N[C@@H](CC(C)C)C(=O)N[C@@H](CCC(=O)O)C(=O)N[C@@H](CCC(=O)O)C(=O)N[C@@H](C)C(N)=O [[D-Tyr^3, D-Pro^4, Nle^18,21]-AHC(3-41)] (H-[dY][dP]PISLDLTFHLLRE[Nle]LE[Nle]AKAEQEAEQAALNRLLLEEA-NH2)
- secretion of ACTH and β-END-LI, amount relative to oCRF ([3]; % of oCRF, general procedure of Example III): about 470%
- lowering of blood pressure [5, 9]: very significant lowering of blood pressure

Compound: CCCC[C@H](NC(=O)[C@H](CCC(=O)O)NC(=O)[C@H](CC(C)C)NC(=O)[C@H](CCCC)NC(=O)[C@H](CCC(=O)O)NC(=O)[C@H](CCCNC(=N)N)NC(=O)[C@H](CC(C)C)NC(=O)[C@H](CC(C)C)NC(=O)[C@H](Cc1c[nH]cn1)NC(=O)[C@H](Cc1ccccc1)NC(=O)[C@@H](NC(=O)[C@H](CC(C)C)NC(=O)[C@H](CC(=O)O)NC(=O)[C@H](CC(C)C)NC(=O)[C@H](CO)NC(=O)[C@@H](NC(=O)[C@@H]1CCCN1)[C@@H](C)CC)[C@@H](C)O)C(=O)N[C@@H](C)C(=O)N[C@@H](CCCNC(=N)N)C(=O)N[C@@H](C)C(=O)N[C@@H](CCC(=O)O)C(=O)N[C@@H](CCC(N)=O)C(=O)N[C@@H](CCC(=O)O)C(=O)N[C@@H](C)C(=O)N[C@@H](CCC(=O)O)C(=O)N[C@@H](CCC(N)=O)C(=O)N[C@@H](C)C(=O)N[C@@H](C)C(=O)N[C@@H](CC(C)C)C(=O)N[C@@H](CC(N)=O)C(=O)N[C@@H](CCCNC(=N)N)C(=O)N[C@@H](CC(C)C)C(=O)N[C@@H](CC(C)C)C(=O)N[C@@H](CC(C)C)C(=O)N[C@@H](CCC(=O)O)C(=O)N[C@@H](CCC(=O)O)C(=O)N[C@@H](C)C(N)=O [[Nle^18,21,Arg^23]-AHC(5-41)] (H-PISLDLTFHLLRE[Nle]LE[Nle]ARAEQEAEQAALNRLLLEEA-NH2)
- stimulates the secretion of ACTH and β-END-LI [3, 9]: stimulates the secretion of ACTH and β-END-LI
- lowering of blood pressure [5, 9]: very significant lowering of blood pressure

Compound: H-SEEPPISLDLTFHLLREVLE[Nle]A[hArg]AEQLAQQAHLNRKLMEE[Nle]-NH2
- stimulates the secretion of ACTH and β-END-LI [3, 9]: stimulates the secretion of ACTH and β-END-LI
- lowering of blood pressure [5, 9]: very significant lowering of blood pressure
